# In ChEMBL document CHEMBL2434896, “Carbonic anhydrase inhibitors. Synthesis of heterocyclic 4-substituted pyridine-3-sulfonamide derivatives and their inhibition of the human cytosolic isozymes I and II and transmembrane tumor-associated isozymes IX and XII” (Eur J Med Chem, 2013):
# Calls of active or inactive are those of the source. No cut-off for these calls is given here.
# Columns and labels:
# SK-MEL-5 = assay: Growth inhibition of human SK-MEL-5 cells at 10 uM after 48 hrs by sulforhodamine B assay; type: functional; conditions: SK-MEL-5, 48 h, read-out: GI
# SK-MEL-28 = assay: Growth inhibition of human SK-MEL-28 cells at 10 uM after 48 hrs by sulforhodamine B assay; type: functional, cell-based
# M14 = assay: Growth inhibition of human M14 cells at 10 uM after 48 hrs by sulforhodamine B assay; type: functional
# UACC-62 = assay: Growth inhibition of human UACC62 cells at 10 uM after 48 hrs by sulforhodamine B assay; type: functional; conditions: UACC-62, 48 h, read-out: GI
# Hs-578T = assay: Growth inhibition of human Hs 578T cells at 10 uM after 48 hrs by sulforhodamine B assay; type: functional
# LOX IMVI = assay: Growth inhibition of human LOXIMVI cells at 10 uM after 48 hrs by sulforhodamine B assay; type: functional
# UACC-257 = assay: Growth inhibition of human UACC257 cells at 10 uM after 48 hrs by sulforhodamine B assay; type: functional
# UO-31 = assay: Growth inhibition of human UO31 cells at 10 uM after 48 hrs by sulforhodamine B assay; type: functional; conditions: UO-31, 48 h, read-out: GI
# MDA-MB-231 = assay: Growth inhibition of human MDA-MB-231 cells at 10 uM after 48 hrs by sulforhodamine B assay; type: functional
# HCT-15 = assay: Growth inhibition of human HCT15 cells at 10 uM after 48 hrs by sulforhodamine B assay; type: functional; conditions: HCT-15, 48 h, read-out: GI
# OVCAR-8 = assay: Growth inhibition of human OVCAR8 cells at 10 uM after 48 hrs by sulforhodamine B assay; type: functional; conditions: OVCAR-8, 48 h, read-out: GI
# Malme-3M = assay: Growth inhibition of human MALME-3M cells at 10 uM after 48 hrs by sulforhodamine B assay; type: functional; conditions: read-out: GI
# HOP-62 = assay: Growth inhibition of human HOP62 cells at 10 uM after 48 hrs by sulforhodamine B assay; type: functional
# SN12C = assay: Growth inhibition of human SN12C cells at 10 uM after 48 hrs by sulforhodamine B assay; type: functional; conditions: read-out: GI
# SK-MEL-2 = assay: Growth inhibition of human SK-MEL-2 cells at 10 uM after 48 hrs by sulforhodamine B assay; type: functional
# OVCAR-5 = assay: Growth inhibition of human OVCAR5 cells at 10 uM after 48 hrs by sulforhodamine B assay; type: functional; conditions: OVCAR-5, 48 h, read-out: GI
# HT-29 = assay: Growth inhibition of human HT-29 cells at 10 uM after 48 hrs by sulforhodamine B assay; type: functional; conditions: HT-29, 48 h, read-out: GI
# SF-295 = assay: Growth inhibition of human SF295 cells at 10 uM after 48 hrs by sulforhodamine B assay; type: functional
# OVCAR-4 = assay: Growth inhibition of human OVCAR4 cells at 10 uM after 48 hrs by sulforhodamine B assay; type: functional; conditions: OVCAR-4, 48 h, read-out: GI
# RPMI-8226 = assay: Growth inhibition of human RPMI8226 cells at 10 uM after 48 hrs by sulforhodamine B assay; type: functional; conditions: RPMI-8226, 48 h, read-out: GI
# CCRF-CEM = assay: Growth inhibition of human CCRF-CEM cells at 10 uM after 48 hrs by sulforhodamine B assay; type: functional; conditions: read-out: GI
# SNB-19 = assay: Growth inhibition of human SNB19 cells at 10 uM after 48 hrs by sulforhodamine B assay; type: functional; conditions: SNB-19, 48 h, read-out: GI
# 786-0 = assay: Growth inhibition of human 786-0 cells at 10 uM after 48 hrs by sulforhodamine B assay; type: functional
# NCI/ADR-RES = assay: Growth inhibition of human NCI-ADR-RES cells at 10 uM after 48 hrs by sulforhodamine B assay; type: functional
# RXF 393 = assay: Growth inhibition of human RXF393 cells at 10 uM after 48 hrs by sulforhodamine B assay; type: functional
# SW-620 = assay: Growth inhibition of human SW620 cells at 10 uM after 48 hrs by sulforhodamine B assay; type: functional
# MOLT-4 = assay: Growth inhibition of human MOLT4 cells at 10 uM after 48 hrs by sulforhodamine B assay; type: functional; conditions: MOLT-4, 48 h, read-out: GI
# MDA-MB-468 = assay: Growth inhibition of human MDA-MB-468 cells at 10 uM after 48 hrs by sulforhodamine B assay; type: functional; conditions: MDA-MB-468, 48 h, read-out: GI
# SR = assay: Growth inhibition of human SR cells at 10 uM after 48 hrs by sulforhodamine B assay; type: functional; conditions: read-out: GI
# NCI-H460 = assay: Growth inhibition of human NCI-H460 cells at 10 uM after 48 hrs by sulforhodamine B assay; type: functional
# T47D = assay: Growth inhibition of human T47D cells at 10 uM after 48 hrs by sulforhodamine B assay; type: functional; conditions: read-out: GI
# PC-3 = assay: Growth inhibition of human PC3 cells at 10 uM after 48 hrs by sulforhodamine B assay; type: functional; conditions: PC-3, 48 h, read-out: GI
# NCI-H322M = assay: Growth inhibition of human NCI-H322M cells at 10 uM after 48 hrs by sulforhodamine B assay; type: functional
# COLO 205 = assay: Growth inhibition of human COLO205 cells at 10 uM after 48 hrs by sulforhodamine B assay; type: functional
# NCI-H522 = assay: Growth inhibition of human NCI-H522 cells at 10 uM after 48 hrs by sulforhodamine B assay; type: functional; conditions: NCI-H522, 48 h, read-out: GI
# SK-OV-3 = assay: Growth inhibition of human SKOV3 cells at 10 uM after 48 hrs by sulforhodamine B assay; type: functional; conditions: SK-OV-3, 48 h, read-out: GI
# BT-549 = assay: Growth inhibition of human BT549 cells at 10 uM after 48 hrs by sulforhodamine B assay; type: functional; conditions: BT-549, 48 h, read-out: GI
# SF-268 = assay: Growth inhibition of human SF268 cells at 10 uM after 48 hrs by sulforhodamine B assay; type: functional
# ACHN = assay: Growth inhibition of human ACHN cells at 10 uM after 48 hrs by sulforhodamine B assay; type: functional
# K562 = assay: Growth inhibition of human K562 cells at 10 uM after 48 hrs by sulforhodamine B assay; type: functional; conditions: K562, 48 h, read-out: GI
# HCT-116 = assay: Growth inhibition of human HCT116 cells at 10 uM after 48 hrs by sulforhodamine B assay; type: functional; conditions: HCT-116, 48 h, read-out: GI
# U-251 = assay: Growth inhibition of human U251 cells at 10 uM after 48 hrs by sulforhodamine B assay; type: functional
# HCC 2998 = assay: Growth inhibition of human HCC2998 cells at 10 uM after 48 hrs by sulforhodamine B assay; type: functional
# DU-145 = assay: Growth inhibition of human DU145 cells at 10 uM after 48 hrs by sulforhodamine B assay; type: functional
# TK-10 = assay: Growth inhibition of human TK10 cells at 10 uM after 48 hrs by sulforhodamine B assay; type: functional
# NCI-H23 = assay: Growth inhibition of human NCI-H23 cells at 10 uM after 48 hrs by sulforhodamine B assay; type: functional
# HOP-92 = assay: Growth inhibition of human HOP92 cells at 10 uM after 48 hrs by sulforhodamine B assay; type: functional; conditions: HOP-92, 48 h, read-out: GI
structure (smiles),measurement,setting,value
NS(=O)(=O)c1cnccc1N1CCC(Cc2ccccc2)CC1,inhibition of growth at 10 µM,SK-MEL-5,4%
same,growth inhibition (GI),SK-MEL-28,inactive
same,growth inhibition (GI),M14,inactive
same,inhibition of growth at 10 µM,UACC-62,3%
same,growth inhibition (GI),Hs-578T,inactive
same,growth inhibition (GI),LOX IMVI,inactive
same,growth inhibition (GI),UACC-257,inactive
same,inhibition of growth at 10 µM,UO-31,21%
same,growth inhibition (GI),MDA-MB-231,inactive
same,inhibition of growth at 10 µM,HCT-15,2%
same,inhibition of growth at 10 µM,OVCAR-8,1%
same,inhibition of growth at 10 µM,Malme-3M,4%
same,growth inhibition (GI),HOP-62,inactive
same,inhibition of growth at 10 µM,SN12C,1%
same,growth inhibition (GI),SK-MEL-2,inactive
same,inhibition of growth at 10 µM,OVCAR-5,1%
same,inhibition of growth at 10 µM,HT-29,2%
same,growth inhibition (GI),SF-295,inactive
same,inhibition of growth at 10 µM,OVCAR-4,2%
same,inhibition of growth at 10 µM,RPMI-8226,11%
same,inhibition of growth at 10 µM,CCRF-CEM,3%
same,inhibition of growth at 10 µM,SNB-19,2%
same,growth inhibition (GI),786-0,inactive
same,growth inhibition (GI),NCI/ADR-RES,inactive
same,growth inhibition (GI),RXF 393,inactive
same,growth inhibition (GI),SW-620,inactive
same,inhibition of growth at 10 µM,MOLT-4,9%
same,inhibition of growth at 10 µM,MDA-MB-468,8%
same,inhibition of growth at 10 µM,SR,18%
same,growth inhibition (GI),NCI-H460,inactive
same,inhibition of growth at 10 µM,T47D,10%
same,inhibition of growth at 10 µM,PC-3,2%
same,growth inhibition (GI),NCI-H322M,inactive
same,growth inhibition (GI),COLO 205,inactive
same,inhibition of growth at 10 µM,NCI-H522,12%
same,inhibition of growth at 10 µM,SK-OV-3,2%
same,inhibition of growth at 10 µM,BT-549,13%
same,growth inhibition (GI),SF-268,inactive
same,growth inhibition (GI),ACHN,inactive
same,inhibition of growth at 10 µM,K562,9%
same,inhibition of growth at 10 µM,HCT-116,10%
same,growth inhibition (GI),U-251,inactive
same,growth inhibition (GI),HCC 2998,inactive
same,growth inhibition (GI),DU-145,inactive
same,growth inhibition (GI),TK-10,inactive
same,growth inhibition (GI),NCI-H23,inactive
same,inhibition of growth at 10 µM,HOP-92,39%
